Source: patent publication US20060122222A1, “Heterocycle substituted carboxylic acids” (The Institutes for Pharmaceutical Discovery, LLC, priority 2004, published 2006)

Row | Compound | melting point
1 | O=C(O)[C@@H]1CSC(c2ccc(-c3ccc(-c4c(Cc5ccccc5)oc5ccccc45)cc3)cc2)N1 (mixture of isomers) [Example 38, (2RS, 4R)-2-[4′-(2-Benzylbenzofuran-3-yl)biphen-4-yl]thiazolidine-4-carboxylic acid] | 148 °C (dec.)
2 | O=C(O)[C@@H]1CSC(c2ccc(-c3ccc(-n4ccc5ccccc54)cc3)cc2)N1 (stereo in doubt) [Example 27, 2-(4′-Indol-1-yl-biphen-4-yl)thiazolidine-4-carboxylic acid] | 135 to 137 °C (dec.)
3 | O=C(O)C(=O)Nc1cc(-c2ccc(-c3cccc4c3oc3ccccc34)cc2)cn(Cc2ccccc2)c1=O [Example 4, N-[1-Benzyl-5-(4-dibenzofuran-4-yl-phenyl)-2-oxo-1,2-dihydro-pyridin-3-yl]-oxalamic acid] | 220 to 223 °C
4 | CCc1ccc(-c2sc(NC(=O)c3ccc(S(=O)(=O)N4CCCC4C(=O)O)cc3)nc2-c2ccc(Cl)cc2)cc1 (stereo not drawn) [Example 5, 1-{4-[4-(4-Chloro-phenyl)-5-(4-ethyl-phenyl)-thiazol-2-ylcarbamoyl]-benzenesulfonyl}-pyrrolidine-2-carboxylic acid] | 289 to 292 °C

More lines, now with the values ahead:

Row | melting point | Compound
5 | 205 °C (dec.) | O=C(O)CCNc1cc(-c2ccc(-c3cccc4c3oc3ccccc34)cc2)nc(Cc2ccccc2)n1 [Example 45, 3-[2-Benzyl-6-(4-dibenzofuran-4-yl-phenyl)-pyrimidin-4-ylamino]-propionic acid]
6 | 210 °C (dec.) | O=C(O)CCNc1cc(-c2ccc(-c3cccc4c3oc3ccccc34)cc2)nc(-c2ccccc2)n1 [Example 46, 3-[2-phenyl-6-(4-dibenzofuran-4-yl-phenyl)-pyrimidin-4-ylamino]-propionic acid]
